Results reported in US5686486A, “4-hydroxy-benzopyran-2-ones and 4-hydroxy-cycloalkyl[b]pyran-2-ones useful to treat retroviral infections” (priority 1995, dated 1997).
Values joined by “and” are separate entries in the source; they are usually repeats but may differ in a detail not shown here. Identical values can stand only once. Square brackets hold non-standard residues; d marks the D form. Peptide text beside a SMILES is read from it. * marks the point of attachment. Sta = CC(C)C[C@H](N)[C@@H](O)CC(=O)O; Isovaleryl = CC(C)CC(=O)*

Experiments:
HIV-1 = conditions: single dose; cited from earlier work
HIV = conditions: cited from earlier work
HIV-1 protease [1] = biological target: T1, HIV-1 protease (Human immunodeficiency virus type 1 group M subtype B, UniProt P04585); experiment: biochemical; conditions: for inhibition at 0.37 µM: read-out: HIV-1 Protease % Inhib, dose 0.370 uM; for inhibition at 1.1 µM: read-out: HIV-1 Protease % Inhib, dose 1.100 uM; for inhibition at 30 µM: read-out: HIV-1 Protease % Inhib, dose 30.000 uM
Method in brief: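 Percent inhibition derived from fluorescent cleavage product separated by filtration after streptavidin-bead capture of intact biotin/FITC substrate. Reaction: enzyme (10 μl, 0.1 μM stock) with substrate (20 μl, 0.2 μM stock) and compound, 1 h at room temperature in dark, pH 5.5 acetate buffer with 1.0 M NaCl and 0.05% NP-40.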

[2] = tested on: p55 Processing in vVk-1 infected CV-1 Cells; experiment: CV-1 Cell Assay: inhibition of p55 processing in vVK-1 infected CV-1 cells (p24 levels); assay type: cell-based; conditions: Cercopithecidae, CV-1, read-out: CV-1 Cell Assay % Inhib
Experimental: Inhibition of p55 Processing in vVk-1 infected CV-1 Cells. CV-1 cells are seeded at 2×10^5 cells per well in 24-well Costar dishes and infected 4 to 6 hours later with vVK-1 at 5 plaque-forming units (PFU) per cell. Each compound is dissolved in Dulbecco's Modified Eagles medium (DMEM) containing 2.5% fetal bovine serum and is added to duplicate wells at the indicated final concentration 2 hours after virus addition. After 24 hours, the culture medium is removed and the monolayer washed with 1 mL of phosphate buffered saline (PBS), and the cells lysed by the addition of 0.1 mL of loading buffer (62.5 mM Tris (hydroxymethyl) aminomethane (Tris), pH 6.8, 2.3% sodium dodecyl sulfate (SDS), 5% β-mercaptoethanol, and 10% glycerol). The cell lysates are collected individually, placed in boiling water for 3 minutes, and then 0.025 mL of each sample is subjected to electrophoresis on 12% SDS-polyacrylamide gels. The proteins are electroblotted onto nitrocellulose and analyzed by protein immunoblotting. The primary antibodies are sheep antibody to p24 (International Enzyme, Inc., Fallbrook, Calif.) and the secondary antibody is alkaline-phosphatase-conjugated rabbit antibody to sheep immunoglobulin G (Kirkegaard & Perry Laboratories, Gaithersburg, Md.). The levels of immunoreactive proteins are quantified by densitometry (Bio-Rad, Model 260) with the accompanying 1-D Analyst Software. Inhibition refers to the mean percent decrease in p24 levels determined from the duplicate drug-treated samples compared to the nondrug-treated controls. […] Val-Ile-Amp (also known as N-[1-(cyclohexylmethyl)-2,3-dihydroxy-5-methyl-4-[[[2-methyl-1-[[(2-pyridinylmethyl)amino]carbonyl]butyl]-amino]carbonyl]hexyl]-α-[[(1-naphthalenyloxy)acetyl]amino]-, [1S-[1R*(R*),2S*,3S*,4S*(1R*,2R*)]]-1H-imidazole-4-propanamide) (which was disclosed in International Publication Number WO 87/05302, published 11 Sep. 1987) was also determined in each experiment.

HIV-1 protease [3] = biological target: T1, HIV-1 protease; experiment: biochemical; conditions: read-out: HIV-1 FITC KI
Method in brief: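 Enzyme (40 nM stock) and substrate (200 μM stock) incubated with inhibitor, 24–48 two-fold serial concentrations, for 90 min at room temperature, then quenched with avidin beads. Nonlinear least-squares analysis gives Ki; a known-Ki inhibitor validates each run.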

HIV-1IIIB = experiment: inhibition of retroviral replication in HIV-1IIIB infected human T-cell lines (MT4 and H9); assay type: cell-based; conditions: e.g.
Experimental: Several compounds of the present invention, such as N-[3-[cyclopropyl(5,6,7,8,9,10-hexahydro-4-hydroxy-2-oxo-2H-cycloocta[b]pyran-3-yl)methyl]phenyl]-4-fluorobenzenesulfonamide and 4-cyano-N-[3-[cyclopropyl(5,6,7,8,9,10-hexahydro-4-hydroxy-2-oxo-2H-cycloocta[b]pyran-3-yl)methyl]phenyl]-benzenesulfonamide were tested in known human cell lines, such as human T-cell lines, e.g., MT4 and H9, which were infected with HIV-1IIIB, and certain of these compounds were further tested in peripheral blood mononuclear cells (PBMC), which were infected with HIV-1JRCSF (a clinical isolate).

HIV protease = conditions: cited from earlier work

SMILES: O=c1cc(O)c2ccccc2o1 [4-hydroxy-coumarin]
- effect on HIV-1 replication and viral transmission (HIV-1): inhibitory effect

SMILES: Cc1cn([C@H]2C[C@H](N=[N+]=[N-])[C@@H](CO)O2)c(=O)[nH]c1=O [AZT, 3'-azido-3'-deoxy-thymidine]
- clinical effect in HIV infection/AIDS (HIV; humans): decrease the mortality and frequency of opportunistic infections associated with AIDS

SMILES: CCCCC(c1ccccc1)c1c(O)c2ccccc2oc1=O (stereo not drawn) [Example 11, 4-Hydroxy-3-(1-phenylpentyl)-coumarin]
- IC50 (HIV-1 protease [1]; HIV-1 Protease IC50): 1890 nM
- inhibition at 0.098 µM (HIV-1 protease [1]; read-out: HIV-1 Protease % Inhib, dose 0.098 uM): < 10%
- inhibition at 0.195 µM (HIV-1 protease [1]; read-out: HIV-1 Protease % Inhib, dose 0.195 uM): < 10%
- inhibition at 0.39 µM (HIV-1 protease [1]; read-out: HIV-1 Protease % Inhib, dose 0.390 uM): 19.2%
- inhibition at 0.78 µM (HIV-1 protease [1]; read-out: HIV-1 Protease % Inhib, dose 0.780 uM): 27.1%
- inhibition at 1.56 µM (HIV-1 protease [1]; read-out: HIV-1 Protease % Inhib, dose 1.560 uM): 58.1%
- inhibition at 3.13 µM (HIV-1 protease [1]; read-out: HIV-1 Protease % Inhib, dose 3.130 uM): 63.1%
- inhibition at 6.25 µM (HIV-1 protease [1]; read-out: HIV-1 Protease % Inhib, dose 6.250 uM): 70.4%
- inhibition at 12.5 µM (HIV-1 protease [1]; read-out: HIV-1 Protease % Inhib, dose 12.500 uM): 82%
- inhibition at 25 µM (HIV-1 protease [1]; read-out: HIV-1 Protease % Inhib, dose 25.000 uM): 95.8%
- inhibition at 50 µM (HIV-1 protease [1]; read-out: HIV-1 Protease % Inhib, dose 50.000 uM): 90.7%
- inhibition at 100 µM (HIV-1 protease [1]; read-out: HIV-1 Protease % Inhib, dose 100.000 uM): 105%
- inhibition at 200 µM (HIV-1 protease [1]; read-out: HIV-1 Protease % Inhib, dose 200.000 uM): 107%
- inhibition at 100 µM [2]: 64%
- inhibition at 300 µM [2]: 78%

SMILES: N#Cc1ccc(S(=O)(=O)Nc2cccc(C(c3c(O)c4c(oc3=O)CCCCCC4)C3CC3)c2)cc1 (stereo not drawn) [Example 262, 4-Cyano-N-[3-[cyclopropyl(5,6,7,8,9,10-hexahydro-4-hydroxy-2-oxo-2H-cycloocta[b]pyran-3-yl)methyl]phenyl]-benzenesulfonamide]
- Ki (HIV-1 protease [3]): 1.4 nM and 0.44 nM and 1.01 nM and 0.6 nM
- HIV-1 Protease % Inhib (HIV-1 protease [1]; dose 0.123 uM): 83.32%
- HIV-1 Protease % Inhib (HIV-1 protease [1]; dose 3.300 uM): 121.87%
- HIV-1 Protease % Inhib (HIV-1 protease [1]; dose 10.000 uM): 119.5%
- inhibition at 0.37 µM (HIV-1 protease [1]): 103%
- inhibition at 1.1 µM (HIV-1 protease [1]): 113%
- inhibition at 30 µM (HIV-1 protease [1]): 115%
- inhibition of retroviral replication (HIV-1IIIB): found to inhibit retrovital replication

SMILES: O=c1oc2c(c(O)c1C(c1cccc(NS(=O)(=O)c3ccc(F)cc3)c1)C1CC1)CCCCCC2 (stereo not drawn) [Example 268, N-[3-[Cyclopropyl(5,6,7,8,9,10-hexahydro-4-hydroxy-2-oxo-2H-cycloocta[b]pyran-3-yl)methyl]phenyl]-4-fluoro-benzenesulfonamide]
- inhibition at 0.123 µM (HIV-1 protease [1]; read-out: HIV-1 Protease % Inhib, dose 0.123 uM): 71.2%
- inhibition at 0.37 µM (HIV-1 protease [1]): 88%
- inhibition at 1.1 µM (HIV-1 protease [1]): 96.2%
- inhibition at 3.3 µM (HIV-1 protease [1]; read-out: HIV-1 Protease % Inhib, dose 3.300 uM): 97.6%
- inhibition at 10 µM (HIV-1 protease [1]; read-out: HIV-1 Protease % Inhib, dose 10.000 uM): 101%
- inhibition at 30 µM (HIV-1 protease [1]): 101%
- inhibition of retroviral replication (HIV-1IIIB): found to inhibit retrovital replication

SMILES: CC(C)CC(=O)N[C@H](C(=O)N[C@H](C(=O)N[C@@H](CC(C)C)[C@@H](O)CC(=O)N[C@@H](C)C(=O)N[C@@H](CC(C)C)[C@@H](O)CC(=O)O)C(C)C)C(C)C [Pepstatin A] (Isovaleryl-VV[Sta]A[Sta]-OH)
- HIV protease inhibition (HIV protease): inhibitor of HIV-I protease

SMILES: Nc1ccn([C@H]2CC[C@@H](CO)O2)c(=O)n1 [ddC]
- limiting toxicity (HIV; humans): peripheral neuropathy which is reversible at low doses

SMILES: O=c1[nH]cnc2c1ncn2[C@H]1CC[C@@H](CO)O1 [ddI]
- effect on liver (HIV; human, in vivo): stimulate hepatic glycolysis leading to irreversible liver damage
- limiting toxicity (HIV; humans): peripheral neuropathy and pancreatitis

SMILES: O=c1ccc2ccc(O)cc2o1 [umbelliferone]
- effect on HIV-1 replication and viral transmission (HIV-1): inhibitory effect

SMILES: CC(=O)CC(c1ccccc1)c1c(O)c2ccccc2oc1=O (stereo not drawn) [warfarin, 3-α-phenyl-β-acetylethyl-4-hydroxycoumarin]
- effect on HIV-1 replication and viral transmission (HIV-1): inhibitory effect
- HIV protease inhibition (HIV protease): displayed HIV protease inhibition
